Test results reported in US7807703B2, “Substituted aryl ketones” (Bayer CropScience AG, priority 2002, dated 2010).

Assay: log P determination by reversed-phase HPLC (EEC Directive 79/831 Annex V.A8; acidic or neutral mobile phase)
Assay type: physicochemical
Conditions: for log P (acidic) / logP (HPLC, mobile phase not marked) / log P: HPLC, reversed-phase C 18, 43° C.; for log P (acidic): acetonitrile (marked a) or acidic); for logP (HPLC, mobile phase not marked) / log P: mobile phase range not marked
Description: The log P values given in the table were determined in accordance with EEC Directive 79/831 Annex V.A8 by HPLC (High Performance Liquid Chromatography) using a reversed-phase column (C 18). Temperature: 43° C.
(a) Mobile phases for the determination in the acidic range: 0.1% aqueous phosphoric acid, acetonitrile; linear gradient from 10% acetonitrile to 90% acetonitrile—the corresponding measurement results are marked a) in Table 1.
(b) Mobile phases for the determination in the neutral range: 0.01 molar aqueous phosphate buffer solution, acetonitrile; linear gradient from 10% acetonitrile to 90% acetonitrile—the corresponding measurement results are marked b) in Table 1.

[1] = HPLC, reversed-phase C18, 43° C.; acidic range a): 0.1% aqueous phosphoric acid, acetonitrile, linear gradient 10% to 90% acetonitrile
[2] = HPLC reversed-phase C18, 43° C., acidic range: 0.1% aqueous phosphoric acid, acetonitrile gradient (marked a))
[3] = acidic range: 0.1% aqueous phosphoric acid
[4] = HPLC reversed-phase C18, 43° C., acidic range: 0.1% aqueous phosphoric acid, acetonitrile (marked a))

## CCON(CC)Cc1c(S(C)(=O)=O)ccc(C(=O)c2cnn(CC)c2O)c1Cl [Example 451]
[1]
  logP: logP = 2.44^a)

## CS(=O)(=O)NCCOc1c(S(C)(=O)=O)ccc(C(=O)C2C(=O)CCCC2=O)c1Cl [Example 14]
[2]
  logP: logP = 1.76^a)

## COC(=O)c1ccc(S(C)(=O)=O)c(OCCNS(C)(=O)=O)c1Cl [VIII-30]
[3]
  log P (acidic): logPacidic = 1.56

## CCON(C)Cc1c(S(C)(=O)=O)ccc(C(=O)OC)c1Cl [VIII-43]
[3]
  log P (acidic): logPacidic = 2.64

## COC(=O)c1ccc(S(C)(=O)=O)c(CN(OC)C2CCSCC2)c1Cl [VIII-40]
[3]
  log P (acidic): logPacidic = 3.20

## CCON(Cc1c(S(C)(=O)=O)ccc(C(=O)c2cnn(C)c2O)c1Cl)CC1CCOC1 (centres unmarked) [Example 427]
[1]
  logP: (I-2) logP = 1.90^a)

## CCN(Cc1c(S(C)(=O)=O)ccc(C(=O)C2C(=O)CC(C)CC2=O)c1Cl)S(C)(=O)=O (centres unmarked) [Example 475]
[1]
  logP: (I-2) logP = 2.32^a)

## COc1c(C(=O)c2cnn(C)c2O)ccc(Cl)c1CN(C)OC [Example 478]
[1]
  logP: logP = 1.90^a)

## CCN(Cc1c(Cl)ccc(C(=O)C2C(=O)CCC(C)(C)C2=O)c1Cl)OC (centres unmarked) [Example 481]
[1]
  logP: (I-2) logP = 4.95^a)

## COC(=O)c1ccc(Cl)c(CN(C)S(C)(=O)=O)c1Cl [VIII-68]
[3]
  log P (acidic): logPacidic = 2.15

## COC(=O)c1ccc(S(C)(=O)=O)c(CN(OC)C2CCOCC2)c1Cl [VIII-60]
[3]
  log P (acidic): logPacidic = 2.38

## CON(Cc1cccnc1)Cc1c(S(C)(=O)=O)ccc(C(=O)c2cnn(C)c2O)c1Cl [Example 386]
[1]
  logP: (I-2) logP = 0.64^a)

## CCN(Cc1c(S(C)(=O)=O)ccc(C(=O)c2cnn(C)c2O)c1Cl)OC [Example 369]
[1]
  logP: logP = 1.84^a)

## CCN(Cc1c(S(C)(=O)=O)ccc(C(=O)C2C(=O)CCCC2=O)c1Cl)OC [Example 308]
  logP (HPLC, mobile phase not marked): (I-2) 2.87

## CS(=O)(=O)NCCOc1c(Br)ccc(C(=O)C2C(=O)CCCC2=O)c1Br [Example 18]
[2]
  logP: logP = 2.23^a)

## CCONCc1c(Cl)ccc(C(=O)C2C(=O)CCCC2=O)c1Cl [Example 133]
[2]
  logP: logP = 2.75^a)

## CCN(Cc1c(Cl)ccc(C(=O)C2C(=O)CCCC2=O)c1Cl)OC [Example 148]
[2]
  logP: logP = 3.63^a)

## COC(=O)c1ccc(S(C)(=O)=O)c(CN(Cc2ccoc2)OC)c1Cl [VIII-57]
[3]
  log P (acidic): logPacidic = 2.91

## COC(=O)c1ccc(S(C)(=O)=O)c(CN(C)OCCOc2ccccc2)c1Cl [VIII-63]
[3]
  log P (acidic): logPacidic = 3.37

## CN(Cc1c(S(C)(=O)=O)ccc(C(=O)c2cnn(C)c2O)c1Cl)S(C)(=O)=O [Example 453]
[1]
  logP: logP = 0.99^a)

## COC(=O)c1ccc(S(C)(=O)=O)c(CN(C)OC(C)C)c1Cl [VIII-45]
[3]
  log P (acidic): logPacicic = 2.97

## CCN(CC)C(=O)CN(Cc1c(S(C)(=O)=O)ccc(C(=O)c2cnn(C)c2O)c1Cl)OC [Example 388]
[1]
  logP: (I-2) logP = 1.59^a)

## CCN(Cc1c(Cl)ccc(C(=O)OC)c1Cl)OC [VIII-9]
  log P: logP = 3.72

## COC(=O)c1ccc(S(C)(=O)=O)c(CN(C)S(C)(=O)=O)c1Cl [VIII-69]
[3]
  log P (acidic): logPacidic = 1.65

## CCOC(=O)c1ccc(Cl)c(OCCNS(=O)(=O)CCl)c1Cl [VIII-16]
  log P: logP = 2.80

## CON(Cc1cccnc1)Cc1c(S(C)(=O)=O)ccc(C(=O)C2C(=O)CCCC2=O)c1Cl [Example 216]
[4]
  logP: (I-2) logP = 1.47^a)

## CCn1ncc(C(=O)c2ccc(S(C)(=O)=O)c(CN(C)OCCOC)c2Cl)c1O [Example 431]
[1]
  logP: (I-2) logP = 1.80^a)

## C=CCN(Cc1c(S(C)(=O)=O)ccc(C(=O)OC)c1Cl)S(C)(=O)=O [VIII-73]
[3]
  log P (acidic): logPacidic = 2.03

## CON(Cc1c(S(C)(=O)=O)ccc(C(=O)c2cnn(C)c2O)c1Cl)C1CCCC1 [Example 378]
[1]
  logP: (I-2) logP = 2.59^a)

## CCn1nc(C)c(C(=O)c2ccc(Cl)c(OCCNS(C)(=O)=O)c2Cl)c1O [Example 355]
[1]
  logP: logP = 1.32^a)

## O=C1CCCC(=O)C1C(=O)c1ccc(Cl)c(OCCNS(=O)(=O)CCl)c1Cl [Example 7]
[2]
  logP: logP = 2.57^a)

## CCON(C)Cc1c(S(C)(=O)=O)ccc(C(=O)c2cnn(C)c2O)c1Cl [Example 414]
[1]
  logP: logP = 1.71^a)

## CCN(Cc1c(Cl)ccc(C(=O)C2C(=O)CCCC2=O)c1OC)OC [Example 483]
[1]
  logP: logP = 3.19^a)

## COC(=O)c1ccc(S(C)(=O)=O)c(CN(OC)C2CCCOC2)c1Cl (centres unmarked) [VIII-59]
[3]
  log P (acidic): logPacidic = 2.55

## CCN(Cc1c(Cl)ccc(C(=O)c2cnn(C)c2O)c1OC)S(C)(=O)=O [Example 463]
[1]
  logP: logP = 1.80^a)

## CON(Cc1c(S(C)(=O)=O)ccc(C(=O)c2cnn(C)c2O)c1Cl)C(C)C1CC1 (centres unmarked) [Example 374]
[1]
  logP: (I-2) logP = 2.53^a)

## COC(=O)c1ccc(Br)c(OCCNS(C)(=O)=O)c1C [VIII-28]
[3]
  log P (acidic): logPacidic = 2.20

## CCN(Cc1c(Cl)ccc(C(=O)C2C(=O)CC(C)CC2=O)c1OC)S(C)(=O)=O (centres unmarked) [Example 474]
[1]
  logP: (I-2) logP = 2.81^a)

## CCn1ncc(C(=O)c2ccc(S(C)(=O)=O)c(CN(OC)C3CCCOC3)c2Cl)c1O (centres unmarked) [Example 412]
[1]
  logP: (I-2) logP = 2.01^a)

## C=CCN(Cc1c(S(C)(=O)=O)ccc(C(=O)c2cnn(CC)c2O)c1Cl)OC [Example 157]
[2]
  logP: (I-2) logP = 2.29^a)

## CON(Cc1c(S(C)(=O)=O)ccc(C(=O)C2C(=O)CCCC2=O)c1Cl)C1CCOC1 (centres unmarked) [Example 409]
[1]
  logP: (I-2) logP = 2.32^a)

## CON(Cc1ccccc1)Cc1c(S(C)(=O)=O)ccc(C(=O)c2cnn(C)c2O)c1Cl [Example 335]
  logP (HPLC, mobile phase not marked): 2.48

## COC(=O)c1ccc(S(C)(=O)=O)c(CN(OC)C(C)C2CC2)c1Cl (centres unmarked) [VIII-37]
[3]
  log P (acidic): logPacidic = 3.58

## CCONCc1c(S(C)(=O)=O)ccc(C(=O)OC)c1Cl [VIII-11]
  log P: logP = 2.05

## COC(=O)c1ccc(S(C)(=O)=O)c(CN(OC)C(=O)C(C)C)c1Cl [VIII-51]
[3]
  log P (acidic): logPacidic = 2.21

## CCn1ncc(C(=O)c2ccc(Cl)c(OCCNS(C)(=O)=O)c2C)c1O [Example 360]
[1]
  logP: logP = 1.82^a)

## CCn1ncc(C(=O)c2ccc(S(C)(=O)=O)c(CN(C)OC)c2Cl)c1O [Example 11]
[2]
  logP: logP = 1.78^a)

## CCS(=O)(=O)NCCOc1c(Cl)ccc(C(=O)OC)c1C [VIII-27]
[3]
  log P (acidic): logPacidic = 2.37

## CCN(Cc1c(S(C)(=O)=O)ccc(C(=O)C2C(=O)CCC(C)(C)C2=O)c1Cl)S(C)(=O)=O (centres unmarked) [Example 466]
[1]
  logP: (I-2) logP = 2.64^a)

## CC(C)ON(Cc1c(S(C)(=O)=O)ccc(C(=O)c2cnn(C)c2O)c1Cl)C(C)C [Example 400]
[1]
  logP: logP = 2.81^a)

## CCn1ncc(C(=O)c2ccc(S(C)(=O)=O)c(CN(C)S(C)(=O)=O)c2Cl)c1O [Example 452]
[1]
  logP: logP = 1.25^a)

## CCN(Cc1c(S(C)(=O)=O)ccc(C(=O)c2cnn(C)c2O)c1Cl)OC [Example 310]
  logP (HPLC, mobile phase not marked): 1.84

## CCON(CC)Cc1c(S(C)(=O)=O)ccc(C(=O)OC)c1Cl [VIII-12]
  log P: logP = 3.06

## CS(=O)(=O)c1ccc(C(=O)C2C(=O)CCCC2=O)c(Cl)c1CNOCc1ccccc1 [Example 199]
[4]
  logP: (I-2) logP = 3.04^a)

## CCN(Cc1c(S(C)(=O)=O)ccc(C(=O)C2C(=O)CCCC2=O)c1Cl)S(C)(=O)=O [Example 467]
[1]
  logP: logP = 2.02^a)

## CCONCc1c(Cl)ccc(C(=O)c2cnn(CC)c2O)c1Cl [Example 134]
[2]
  logP: logP = 2.07^a)
